Earlier results, collected in US7060729B2, “Composition and method for treating skin” (priority 2002, dated 2006).
Read-outs that look alike come from different tables or passages of the source.

What was measured:
[1] = in vivo
[2] = topical application
H. pylori = settings: Mayr-Kanhauser 2001
[3] = as stated in US 5,972,993

Row | Structure (SMILES) | erythema, dryness, and burning associated with rosacea [1] | physicians' rating of global improvement, azelaic acid versus metronidazole [1] | reducing the number of inflammatory lesions and associated signs and symptoms of rosacea [1] | telangiectasia [1] | inflammatory papule lesions and erythema [2] | pustules caused by rosacea [2] | telangiectasia [2] | eliminating H. pylori (H. pylori) | effect against skin redness, telangiectasia or flushing [3] | effect on papules and pustules of rosacea [3]
1 | O=C(O)CCCCCCCC(=O)O [azelaic acid, 1,7-heptanedicarboxylic acid] | effective | more favorably | equally effective | failed to effect | significantly reduce | not effective | did not produce any major improvement |  |  | 
2 | CC[C@H]1OC(=O)[C@H](C)[C@@H](O[C@H]2C[C@@](C)(OC)[C@@H](O)[C@H](C)O2)[C@H](C)[C@@H](O[C@@H]2O[C@H](C)C[C@H](N(C)C)[C@H]2O)[C@](C)(OC)C[C@@H](C)C(=O)[C@H](C)[C@@H](O)[C@]1(C)O [clarithromycin] |  |  |  |  |  |  |  | effective |  | 
3 | Cc1ncc([N+](=O)[O-])n1CCO [metronidazole, 2-methyl-5-nitro-1H-imidazole-1-ethanol] | effective |  | equally effective | failed to effect |  |  |  | effective | ineffective | have an effect
